Key:
Assay type in all cases: cell-based
PC3 = assay: Cancer cell panel, cell viability (resazurin): Prostate, PC3; conditions: Homo sapiens, PC-3, 72 hours, single agent, read-out: Example 3 IC50
Description: (§1) Cells were plated in 96-well plates and treated for 72 hours with a serially diluted CK2 inhibitor or anti-cancer drug or their combination. The suspension cell lines were treated right after plating, while the adherent cells were allowed to attach overnight prior to the start of the treatment.
(§2) Cell viability was determined by adding resazurin to cell cultures and measuring fluorescence with a plate reader. Relative cell viability was calculated by dividing the cell viability signal from a test sample by that of a non-treated control. […] Bliss Independence and Highest Single Agent models were used to determine if there is synergy, additivity or antagonism between the CK2 inhibitor and an anti-cancer drug.

SKOV-3 = assay: Cancer cell panel, cell viability (resazurin): Ovarian, SKOV-3; conditions: Homo sapiens, SK-OV-3; SKOV-3 (Ovarian), 72 hours, single agent; read-out: Example 3 IC50
OVCAR-3 = assay: Cancer cell panel, cell viability (resazurin): Ovarian, OVCAR-3; conditions: Homo sapiens; OVCAR-3 (Ovarian), 72 hours, single agent; read-out: Example 3 IC50
Description: as §1, §2

Mia-Paca-2 = assay: Cancer cell panel, cell viability (resazurin): Pancreatic, Mia-Paca-2; conditions: Homo sapiens; Mia-Paca-2 (Pancreatic), 72 hours, single agent; read-out: Example 3 IC50
Description: as §1, §2

HCT116 = assay: Cancer cell panel, cell viability (resazurin): Colon, HCT116; conditions: Homo sapiens, HCT-116, 72 hours, single agent, read-out: Example 3 IC50
Colo205 = assay: Cancer cell panel, cell viability (resazurin): Colon, Colo205; conditions: Homo sapiens, COLO 205, 72 hours, single agent, read-out: Example 3 IC50
LoVo = assay: Cancer cell panel, cell viability (resazurin): Colon, LoVo; conditions: Homo sapiens, 72 hours, single agent, read-out: Example 3 IC50
A549 = assay: Cancer cell panel, cell viability (resazurin): NSCLC, A549; conditions: Homo sapiens, 72 hours, single agent, read-out: Example 3 IC50
MDA-MB-231 = assay: Cancer cell panel, cell viability (resazurin): Breast, MDA-MB-231; conditions: Homo sapiens; MDA-MB-231 (Breast), 72 hours, single agent; read-out: Example 3 IC50
Description: as §1, §2

MDA-MB-157 = assay: Cancer cell panel, cell viability (resazurin): Breast, MDA-MB-157; conditions: Homo sapiens; MDA-MB-157 (Breast), 72 hours, single agent; read-out: Example 3 IC50
786-O = assay: Cancer cell panel, cell viability (resazurin): Renal, 786-O; conditions: Homo sapiens, 786-0; 786-O (Renal), 72 hours, single agent; read-out: Example 3 IC50
Description: as §1, §2

Caki-1 = assay: Cancer cell panel, cell viability (resazurin): Renal, Caki-1; conditions: Homo sapiens; Caki-1 (Renal), 72 hours, single agent; read-out: Example 3 IC50
Caki-2 = assay: Cancer cell panel, cell viability (resazurin): Renal, Caki-2; conditions: Homo sapiens; Caki-2 (Renal), 72 hours, single agent; read-out: Example 3 IC50
A375 = assay: Cancer cell panel, cell viability (resazurin): Melanoma, A375; conditions: Homo sapiens, A-375, 72 hours, single agent, read-out: Example 3 IC50
SK-MEL-24 = assay: Cancer cell panel, cell viability (resazurin): Melanoma, SK-MEL-24; conditions: Homo sapiens; SK-MEL-24 (Melanoma), 72 hours, single agent; read-out: Example 3 IC50
U266 = assay: Cancer cell panel, cell viability (resazurin): multiple myeloma, U266; conditions: Homo sapiens, U-266, 72 hours, single agent, read-out: Example 3 IC50
Daudi = assay: Cancer cell panel, cell viability (resazurin): Burkitt's Lymphoma, Daudi; conditions: Homo sapiens, 72 hours, single agent, read-out: Example 3 IC50
Description: as §1, §2

K562 = assay: Cancer cell panel, cell viability (resazurin): Leukemia, K562; conditions: Homo sapiens, 72 hours, single agent, read-out: Example 3 IC50
Description: as §1, §2

HL60 = assay: Cancer cell panel, cell viability (resazurin): Leukemia, HL60; conditions: Homo sapiens, HL-60, 72 hours, single agent, read-out: Example 3 IC50
Description: as §1, §2

EOL-1 = assay: Cancer cell panel, cell viability (resazurin): Leukemia, EOL-1; conditions: Homo sapiens, EOL1; EOL-1 (Leukemia), 72 hours, single agent; read-out: Example 3 IC50

IC50 (PC3): 112 nM
IC50 (SKOV-3): 1380 nM
IC50 (OVCAR-3): 42 nM
IC50 (Mia-Paca-2): 253 nM
IC50 (HCT116): 356 nM
IC50 (Colo205): 1120 nM
IC50 (LoVo): 170 nM
IC50 (A549): 1670 nM
IC50 (MDA-MB-231): 567 nM
IC50 (MDA-MB-157): 447 nM
IC50 (786-O): 2620 nM
IC50 (Caki-1): 171 nM
IC50 (Caki-2): 669 nM
IC50 (A375): 218 nM
IC50 (SK-MEL-24): 1410 nM
IC50 (U266): > 10000 nM
IC50 (Daudi): 217 nM
IC50 (K562): 463 nM
IC50 (HL60): 261 nM
IC50 (EOL-1): 138 nM
SMILES: C[S@+]([O-])Cc1cc(Nc2cc(NC3CC3)n3ncc(C#N)c3n2)ccc1Cl [Example 3, (S)(+)-5-((4-Chloro-3-((methylsulfinyl)methyl)phenyl)amino)-7-(cyclopropylamino)pyrazolo[1,5-a]pyrimidine-3-carbonitrile]
